Experiment [1] concerns HCT116 colon cancer cells. Kind of experiment: Crystal violet cell survival assay. It is filed as cell-based, human. The settings on record: SN-38 0.05 microgram/ml; FIG. 15. How it is done:
A crystal violet assay was also used. […] The medium was removed the following day, and the cells were incubated for 24 or 48 hours in the fresh medium containing the various agents noted above. At the end of each treatment, the medium was removed and 100 μl of 0.5% crystal violet solution was added to each well and incubated at room temperature for 10 minutes before washing with water. After the wells were dry, 100 μl of ethanol containing 0.5 N HCL was added to each well. The plates were then read at 540 nm using a 96-well plate reader (Spectra Max 340pc, Molecular Devices Corporation, Sunnyvale, Calif.).

For experiment [2], the system named is DR5 mRNA in HCT116 cells. The experiment can be described thus: bDNA assay of DR5 mRNA. It is filed as cell-based, human. How it is done:
The specificity of the probes was tested using RNA from in vitro transcription using recombinant DcR1, DcR2, DR4 and DR5 constructs.

The test system of experiment [3] is DR4 mRNA in HCT116 cells. Kind of experiment: bDNA assay of DR4 mRNA. It is filed as cell-based, human. An excerpt:
Total RNA was isolated using the RNA stat-60™ solution (Tel-Test, Inc (Friendsweed, Tex.) according to manufacturer's instruction. The Quantigene bDNA™ signal amplification kit (Chiron diagnostics; East Walpole, Mass.) was used to evaluate mRNA levels. The sequence of GAPDH probe sets was as recommended by the manufacturer. The DR4 probe sets were lined within the region of nucleic acid residues 9 to 582. There were 5 capture probes, 16 labeling probes and 8 blocking probes. The DR5 probe sets were lined within the region of nucleic acid residues 13-591. There were 5 capture probes, 17 labeling probes and 5 blocking probes for DR5. The specificity of the probes was tested using RNA from in vitro transcription using recombinant DcR1, DcR2, DR4 and DR5 constructs. Both DR4 and DR5 probe sets were highly specific for their own RNA transcripts. The signal from each probe sets was linear with the concentrations tested. bDNA assays were performed according to manufacturer's instructions using about 2 μg of total RNA/well.

The subject of experiment [4] is HCT116 cells. Kind of experiment: Flow cytometric cell cycle analysis, HCT116. It is filed as cell-based, human. The method, then: Cell cycle analysis was performed via FACS analysis. HCT116 and HUVEC cells were incubated and treated as described in the figure legends. After the treatments, both floating cells in the medium aid live cells in the plate were collected. Cycle TEST PLUS DNA™ reagent kit (Beckon Dickinson; San Jose, Calif.) was used to stain cells according to manufacturer's instruction. The stained cells were analyzed in a FACS sorter (Becton Dickinson). The percentage of apoptotic cells containing a sub-G1 DNA content was quantitated using the CellQuest program. The percentage of live cells in each phase of cell cycle was quantitated using the ModFit LT program.
A general note: In flow cytometry, cells or beads pass a laser one at a time.

For experiment [5], the system named is HCT116 colon cancer cells. Kind of experiment: AlamarBlue cell viability assay. It is filed as cell-based, human. The settings on record: 24 hours; CPT-11 50 μg/ml, Apo2L/TRAIL 1 μg/ml. The method, then:
(§1) An AlamarBlue™ assay was used to determine the cell viability. HCT116 colon cancer cells (˜10000 cells/well) were incubated overnight in 10% FBS RPMI 1640 medium in 96-well tissue culture plates. […] AlamarBlue™ was added to the wells for the last 6 hours of the 24 hours incubation time. Fluorescence was read using 96-well fluorometer plate reader with an excitation of 530 nm and emission of 590 nm (CytoFluor multi-well plate reader series 4000, PerSeptive Biosystems; Framingham, Mass.). In addition, the Molecular probes Live/Dead^R viability/cytotoxicity kit (Eugene, Oreg.) was used to evaluate the presence of live or dead cells. In these assays, Calcein-Am (4 μM) and ethidium homodimer-1 (2 μM) were added to treated cells 15 minutes before inspecting the cultures under an Axiovert 25 (Zeiss; Thornwood, N.Y.) fluorescence microscope equipped with fluorescein (calcein) and rhodamine (ethidium homodimer-1) filters.

In experiment [6] the test system is HCT116 cells. Kind of experiment: Live/Dead viability/cytotoxicity fluorescence microscopy (calcein-AM, ethidium homodimer-1). It is filed as cell-based, human. How it is done: as §1
Experiment [7] concerns p53 protein in HCT116 cells. Kind of experiment: p53 protein western blot, HCT116. The settings on record: HCT116 tumor cells; 2 and 24 hours; hydrochloride trihydrate. It is filed as cell-based, human. How it is done: (§2) For Western blotting, cells were lysed in 20 mM Tris-HCl, pH 7.4 containing 10% glycerol, 1% Triton-x100, 150 mM NaCl and protease inhibitors (1 mM PMSF, 10 μg/ml Aprotinin, 10 μg/ml Leupeptin, Sigma). Aliquots of 50 μg of total protein per well were separated in a NuPAGE 4-12% Bis-Tris gel with NuPAGE MES SDS running buffer (Novex; San Diego, Calif.). The gels were transferred to […] pure nitrocellulose membrane (Bio-Rad) by semi-dry transfer cell (Bio-dad; Hercules, Calif.) with NuPAGE transfer buffer. The membranes were blocked with PBS containing 5% nonfat dry milk and incubated with primary antibodies against the proteins of interest followed by a horseradish […] secondary antibody (Amersham; Braunschweig, Germany). Immunoreactivo bands were visualized by the enhanced chemiluminescencesystem (Amersham; Braunschweig, Germany). The antibodies used in this study were: Anti-caspase-3 (Stratagene, #200021; La Jolla, Calif.), anti-p53 and anti-p21 (Oncogene, #0P43 and #0P64; Cambridge, Mass.), and anti-FLIP (#343002, Calbiochem, San Diego, Calif.). The antibodies were used at the concentrations recommended by the manufacturers.

The subject of experiment [8] is p53 protein in HUVEC cells. Kind of experiment: p53 protein western blot, HUVEC. It is filed as cell-based, human. The settings on record: normal HUVEC cells; 2 and 24 hours; hydrochloride trihydrate. How it is done: as §2
Experiment [9] relates to p21 protein in HCT116 cells. Kind of experiment: p21 protein western blot, HCT116. It is filed as cell-based, human. The method, then:
as §2

Experiment [10] deals with p21 protein in HUVEC cells. The experiment can be described thus: p21 protein western blot, HUVEC. It is filed as cell-based, human. The settings on record: normal HUVEC cells; 24 hours. The method, then: as §2
Background: In western blotting, separated proteins are transferred to a membrane and probed.

Experiment [11] concerns COLO205 colon carcinoma cells. Kind of experiment: COLO205 colon carcinoma tumor growth in athymic nude mice (Example 1).
Protocol: The colon carcinoma cell line COLO205 (available from NCI) were grown and maintained according to the supplier's methods. Briefly, COLO205 cells were cultured in high glucose DMEM/F12 (50:50) media containing 10% fetal bovine serum and 2.0 mM L-Glutamine. […] CPT-11 (Camptosar®) was obtained from Pharmacia & Upjohn.
Where [12] appears, read: 24 hours of treatment, without Z-VAD.

“Also recorded” adds a separate entry of the source. Where a SMILES comes first, the peptide text is derived from it. The star is where a group is joined. Cbz = O=C(OCc1ccccc1)*; CH2F = FC*

Turning to `CCc1c2c(nc3ccc(O)cc13)-c1cc3c(c(=O)n1C2)COC(=O)[C@]3(O)CC` [SN38], the “tumor cell death with SN38 instead of CPT-11 in combination and sequential treatments with Apo2L/TRAIL” value in experiment [1] is listed as “Increased tumor cell death”.

Turning to `CC(NC(=O)C(NC(=O)OCc1ccccc1)C(C)C)C(=O)NC(CC(=O)O)C(=O)CF` (stereo not drawn) [Z-VAD] (Cbz-Val-Ala-Asp-CH2F; configuration not given here), in [2] (24 hours, with Z-VAD), the “increase in DR5 mRNA in the presence of Z-VAD” value is listed as “did not block”. The “increase in DR4 mRNA in the presence of Z-VAD” value in experiment [3] (24 hours, with Z-VAD) is “did not block”. Also, in experiment [4] (HCT116), the “effect of caspase inhibitor on Apo2L/TRAIL-mediated apoptosis” value is “effectively blocked Apo2L/TRAIL-mediated apoptosis”.

In the case of `CCc1c2c(nc3ccc(OC(=O)N4CCC(N5CCCCC5)CC4)cc13)-c1cc3c(c(=O)n1C2)COC(=O)[C@]3(O)CC.Cl.O.O.O` [CPT-11, (4S)-4,11-diethyl-4-hydroxy-9-[(4-piperidino-piperidino)carbonyloxyl]-1H-pyrano[3′,4′:6,7]indolizino [1,2-b]quinoline-3,14(4H,12H)dione hydrochloride trihydrate], in experiment [5], the “effect on Apo2L/TRAIL-mediated apoptosis (number of live cells)” value is “enhanced Apo2L/TRAIL-mediated apoptosis in vitro”. Also, the “morphological changes / cell killing” value in experiment [6] (2 hours of treatment) is given as “did not show any morphological changes”. Besides, the cell death entry in [6] (24 hours of treatment) is reported as “a few dead cells were clearly present”. In experiment [2] (2 hours of treatment), the “increase in DR5 mRNA expression compared with controls” value is “not at 2 hours”. Further, the “increase in DR5 mRNA compared with controls” value in experiment [2] (setting [12]) is on record as 2.5 fold. The “induction of DR5 expression by CPT-11 in vitro” value in [2] (time of exposure, hydrochloride trihydrate) is reported as “can be observed after two hours exposure or incubation; also recorded: induced in vitro following exposure of cells to 50 microgram/ml CPT-11 for 6 hours”. Besides, the “increase in DR4 mRNA compared with controls” value in experiment [3] (2 hours of treatment) was “not at 2 hours”; in experiment [3] (setting [12]), 2.5 fold. The p53 protein level result was “strong and sustained induction of p53 expression; also recorded: increase in p53 protein levels” in experiment [7]; “strong and sustained induction of p53 expression; also recorded: increase in p53 protein levels” in [8]. Also, the “time profile of changes in p21 protein levels” value in [9] (CPT-11 incubation) was “increases as early as 4 hours of treatment”. The p21 protein level result in [9] (HCT116 tumor cells, 24 hours) is given as “large induction of p21 protein”; in [10], “large induction of p21 protein”. In addition, the “cells in Go-G1 (cell cycle arrest)” value in experiment [4] (6 hours, control 30%) is 76%. The Go-G1 phase result in experiment [4] (24 hours) was “clear reduction in Go-G1 phase”. Moreover, the “cells in G2-M phase (arrest)” value in experiment [4] (24 hours, control 19%) was determined as 43%. In addition, in experiment [4] (24 hours, control cells 1%), the “apoptosis (sub-G1 DNA content)” value amounted to 9%. Also, the “animals in which tumor growth resumed several days after the treatment period” value in experiment [11] (9 mice per group) was determined as 9 animals. Also, the “effect on tumor growth” value in [11] (s.c. COLO205 tumors, Apo-2L 30 mg/kg/day days 0-4 and 7-11, CPT-11 80 mg/kg/day days 0, 4, 8, 34 days) was “suppressed tumor growth during the treatment period”.

The record behind these values is patent publication US20110059104A1, “Apo-2L receptor agonist and CPT-11 synergism” (Genentech, Inc., priority 2000, published 2011).
